# Data as given in patent US9388405B2, “Method for identifying a subpopulation of mammalian cells with distinctive ribosome translation profiles” (priority 2009, dated 2016).
# Peptide text beside a SMILES is read from it. * marks the point of attachment. Cbz = O=C(OCc1ccccc1)*
# Tests used:
# [1] = tested on: Class III HCT116 mTRdm-fLUC 7-5 and 12-16 cell lines; assay: Western blot of fLUC protein in 15-Assay cell extracts; assay type: cell-based, human
# Method: The remaining cell suspension was centrifuged as described above and the pellets stored at −70/−80° C. for subsequent protein extraction and Western blot analysis. For protein extraction, cells were thawed on ice and resuspended in equal volumes of the Suspension Buffer (100 mM NaCl, 10 mM TrisHCl [pH 7.6], 1 mM EDTA, 1 mg/mL aprotinin, 100 μg/mL PMSF) and the 2×SDS Buffer (100 mM TrisHCl (pH6.8), 4% SDS, 20% glycerol, 20 mM DTT, 10 mM EDTA, 2× Roche Protease Inhibitor Cocktail). The extracts were homogenized by vigorous mixing and boiling for 3 min. Additional homogenization (when needed) was achieved by passing samples through a syringe fitted with a 26 G needle. At this point, the extracts were either analyzed by SDS-PAGE gel or stored at −80° C.
# To produce a near quantitative Western blot analysis, equal protein concentrations are loaded on Western blots. […] The fLUC protein was detected using an anti-fLUC primary antibody (Sigma; 1:1000 dilution). After incubation with a primary antibody and extensive washing with 1×PBS-T, proteins binding the primary antibody were detected by incubation with a horseradish peroxidase (HRP) conjugated anti-rabbit secondary antibody (Amersham; 1:10000 dilution). Following incubation with the secondary antibody and extensive washing, reactive proteins were detected with the ECL reagent system (Amersham) as described by the vendor. […]
# [2] = tested on: HEK293 CMV-fLuc subclone #3; assay: Updated 15-Assay / 21-Assay, cap-dependent translational responses; assay type: cell-based, human; details: 21-Assay, single-Toxin (Unknown), 6 hr
# From the text: (§1) The dashed line represents the level of translational response in the untreated samples.
# Following 6 hr exposure to the compounds, cells were lysed and fLuc protein activity measured using a standard microplate reader assay. The triplicate plate reader values were averaged and expressed as the ratio of treated to untreated samples (Fold Induction). The dashed line represents the level of translational response in the untreated samples.
# (§2) The 21-Assay procedure employs the same standard toxins as the Updated 15-Assay protocol. The extra 6 assays involve an unknown or an uncharacterized compound and its pairwise combinations with the five toxins: Unknown, Unknown+TPA, Unknown+Colchcine, Unknown+Bortezomib (Velcade), Unknown+Low dose Calon, and Unknown+Hycamtin (Topotecan).
# Application of single-Toxin and two-Toxin assays in the Updated 15-Assay protocol was used to define cap-dependent translational responses in the HEK293 CMV-fLuc #3 subclone (FIG. 30A).
# The combinatorial process described in this example provides a system for testing translational regulation by unknown compounds. In this example, a 21-Assay setup is described that employs the single and pairwise combinatorial application of 5 toxins, as in a standard 15-Toxin assay, and the addition of a sixth substance. Inclusion of the sixth substance requires the expansion of the assay group to a total of 21 single- and two-Toxin assays. For this example, a control substance (taxol) was selected from the original 15-Assay system.
# [3] = tested on: HEK293 hTRdm-fLuc #53 and HEK293 mTRdm-fLuc #12 subclones; assay: Microtubule disruptor single-Toxin dose response, cap-independent; assay type: cell-based, human; details: cap-dependent and cap-independent assays
# Method: The plate reader values were averaged and expressed as the ratio of treated to untreated samples (Fold Induction). Highly similar TR expression profile were produced by the human (hTRdm, top panel) and the mouse (mTRdm, bottom panel) TR cassettes. […] In contrast, significant increases in reporter activity were only observed at nocodazole concentrations greater than 250 nM. As in the cap-dependent assay, taxol-specific reporter increases were only observed at the 2.5 uM and 5 uM doses.
# Highly similar cap-independent translational profiles were produced by each TR-expressing cell line (FIGS. 29B and C). […] This contrasted with the nocodazole responses, where significant increases were observed only at concentrations larger than 250 nM. As before, taxol-specific translational increases were only observed at the 2.5 uM and 5 uM doses.
# [4] = tested on: HCT116 mTRdm-fLUC cells; assay: 5-Assay / 15-Assay toxin assays, fLUC plate reader (Fold Induction); assay type: cell-based, human; details: 5-Assay, 6 hr, HCT116 mTRdm-fLUC 12-16 subclone #38
# Method: The 5-Assay and 15-Assay procedures were applied to cellular pools using either of two growth procedures (e.g. a Cell Count or Confluence growth assay). For a Cell Count assay, cells from the P1 pool dish were counted and passed into a white clear bottom 96-well microtiter tray at a density of 25,000 cells per well; the leftover cells were passed into a passage 2 (P2) dish. Cells in the microtiter plate were allowed to grow for about 40 hr to achieve a ˜75% cell confluence prior to incubation with a toxic agent. Then cells in a microtiter plate were treated with complete growth medium containing either no toxin or an optimal toxin, defined as a single or multiple toxin assay that produces a maximal translational response (taken from Table 3) and incubated for 6 hours at 37° C. Each treatment was performed on triplicate wells.
# After toxin incubation, cells were examined by phase contrast microscopy for signs of detachment. If more than ˜10% of cells were detached, the 96-well plates were centrifuged at 1200 rpm for 3 min to pellet the detached cells. The media were removed and replaced with 50 μL of Cell Lysis Buffer (25 mM Tris-phosphate (pH7.8), 10% glycerol, 1% Triton X-100, 1 mg/ml BSA, 2 mM EGTA and 2 mM DTT). Cells were incubated with the Cell Lysis Buffer for 10 min at RT and cell lysis was verified using a phase contrast microscope. To ensure complete lysis, the lysates were vigorously agitated using the multichannel pipettor. Any air bubbles formed as a result of agitation were manually removed with a syringe needle. Luminescence was measured using the FLUOstar Optima (BMG Labtech) microplate reader. To develop luminescence, wells were injected with 5 μL of the D-luciferin solution dissolved in Reaction Buffer (25 mM Glycylglycine (pH 7.8), 15 mM MgSO4, 4 mM EDTA, 15 mM Potassium phosphate, 1 mM DTT, 1 mM Coenzyme A, 6.7 mM ATP and 3.35 mM D-luciferin). After 4 sec with shaking, luminescence values were measured using the lens filter at gains of 2500-4000.
# Light values were converted to Fold Induction using the ratio of values produced by treated and untreated cells. The maximal TR-specific translational response produced by the 5-Toxin or 15-Toxin assay was used to assign an optimal toxin assay (maximal translational response) which was subsequently used to screen subclones derived from this pool and to assign a Class designation. […]
# In one test, the 5-Assay procedure (Table 3) was applied to HCT116 mTRdm-fLUC 12-16 subclone #30 cells (FIG. 1A). […] Samples were then processed with Lysis buffer and read in a plate reader. […]
# Triplicate samples of HCT116 mTRdm-fLUC 12-16 Sub#30 cells were cultured with the two-Toxin assays using a standard plate reader protocol (FIG. 1C). […]
# [5] = tested on: HEK293 mTRdm-fLuc subclone #13 and HEK293 hTRdm-gLuc subclone #79; assay: Updated 15-Assay / 21-Assay, TR translational responses (fLuc, gLuc); assay type: cell-based, human; details: 21-Assay, subclone #13, taxol as Unknown
# Method: as §1
# As before, secreted Gaussia Luciferase (gLUC) activity was measured in conditioned media 6 hr after drug application and protein activity expressed as the ratio of treated to untreated samples (Fold Induction). The dashed line represents the translational response in untreated cells.
# The dashed line represents the translational response produced by untreated cell samples.
# Following a 6 hr culture time, secreted gLuc activity was measured in conditioned media using a standard microplate reader assay and expressed as the ratio of treated to untreated samples (Fold Induction). The dashed line represents the level of translational response in the untreated samples. Given that the gLuc protein is secreted into the media, it escapes the cytoplasmic protein turnover processes acting on the fLUC protein. Therefore, any difference in the apparent TR response is a likely result of variation in reporter protein synthesis, secretion or reduced protein turnover.
# as §2, with “(Topotecan). […]” for “(Topotecan).”
# [6] = tested on: MCF7 CMV-fLuc subclones #44 and #48; assay: PKC activator dose response, cap-dependent translation (fLuc); assay type: cell-based, human
# Method: Following 6 hr exposure to the Single-Toxin TPA assay, cells were lysed and fLuc protein activity measured using a standard microplate reader assay. The raw values were averaged and expressed as the ratio of treated to untreated samples (Fold Induction).
# Dashed lines represent translational response levels produced by a 100 nM TPA Single-Toxin assay. The Bryostatin 1 concentrations (top panel) encompassed the TPA concentrations used in FIG. 27A. […] The Bryostatin 2 dose response curve (bottom panel) employed higher drug concentrations (the maximal tested dose was 5× the largest TPA and Bryostatin 1 amounts). At the highest tested dose (2.5 uM), Bryostatin 2 produced fLuc activity consistent with the level observed with 100 nM TPA.
# In addition to measuring cap-dependent and cap-independent translational effects, Class-specific translational activity and toxin-defined actions, the previously described materials and methods allow for a variety of applications designed to detect and characterize agents and processes that regulate ribosome activity. In this example, comparative dose response assays were used to detect cap-dependent and cap-independent translational regulation in MCF7 cells. The basis for this application was the observation that distinct translational responses are produced by compounds at different doses. When an assortment of compounds act on a common molecular target, they can be grouped into a genus of related drugs. By comparing individual species of a compound genus over a defined dose range, differences in translational regulation can be defined. Furthermore, these translational differences can often be linked to biological differences.
# In this example (FIG. 27), the three PKC activators produced similar dose response trends in cap-dependent assays. […] However, macrolide lactones produced translational increases that were generally 60-70% of the TPA translational response (FIG. 27B). In fact, a 25 fold increase in Bryostatin 2 concentration (2.5 uM) was needed to produce a translational magnitude similar to the 100 nM TPA assay (FIG. 27B).
# [7] = tested on: Protein Kinase C (PKC); details: cited from earlier work
# [8] = tested on: MCF7 mTRdm-fLuc subclones #8, #27, and #45; assay: PKC activator dose response, cap-independent TR translation (fLuc); assay type: cell-based, human
# Method: Following 6 hr culture with a TPA single-Toxin assay, cells were lysed and fLuc protein activity measured using a standard microplate reader assay. The plate reader values were averaged and expressed as the ratio of treated to untreated samples (Fold Induction).
# As with FIG. 27B, dashed lines represent translational response levels achieved by the 100 nM TPA assay in each cell line. […] A further difference between the cap-dependent and cap-independent assays was the observation that increased Bryostatin 2 concentrations (5× the maximal TPA dose) never produced fLUC activity equivalent to the 100 nM TPA assay. Thus, the Toxin Assay procedure can detect a statistically significant difference in cap-dependent and cap-independent translation in compounds that activate PKC activity.
# In the cap-independent assays, a similar dose response trend was observed over a 1 nM to 250 nM range with a translational peak at a 100 nM dose. However, the magnitude of the Bryostatin increases were generally 30% of 100 nM TPA response.
molecule,measurement,setting,value
"CC(C)C[C@@H](C=O)NC(=O)[C@H](CC(C)C)NC(=O)[C@H](CC(C)C)NC(=O)OCc1ccccc1 [MG132, Z-Leu-Leu-Leu-aldehyde] (Cbz-Leu-Leu-Leu-aldehyde)",fLUC protein levels by Western blot,"[1]; HCT116 mTRdm-fLUC 7-5, 15-Assay",significant fLUC protein levels
same,fLUC protein levels by Western blot,"[1]; HCT116 mTRdm-fLUC 12-16, 15-Assay, 6 hrs",extremely high protein levels
"CC(=O)O[C@H]1C(=O)[C@@]2(C)[C@H]([C@H](OC(=O)c3ccccc3)[C@]3(O)C[C@H](OC(=O)[C@H](O)[C@@H](NC(=O)c4ccccc4)c4ccccc4)C(C)=C1C3(C)C)[C@]1(OC(C)=O)CO[C@@H]1C[C@@H]2O [Taxol, Paclitaxel]",effect on cap-dependent fLuc protein production,[2],minimal effect on cap-dependent fluc protein production
same,response profile compared with other microtubule disruptor drugs,[3],smallest response profile of all the microtubule disruptor drugs tested
same,TR-specific toxin response,[4],Maximal TR-specific toxin responses
same,effect on fLUC activity,[5],"small synergistic increases in fLUC activity in the single-Toxin and the colchicine+taxol, calcimycin+taxol, bortezomib+taxol two-Toxin assays, but not in the TPA+taxol or topotecan+taxol assays"
Bryostatin 2,fold increase in concentration needed for translational magnitude similar to the 100 nM TPA assay,[6],25 fold
same,dose producing fLuc activity consistent with the level observed with 100 nM TPA,"[6]; single-Toxin, highest tested dose",2.5 µM
same,inhibition constant (Ki) relative to the Ki of Bryostatin 1,[7],10 ×
same,% of the 100 nM TPA response,[8]; dose 2.5 uM,~50%
same,magnitude of translational response versus 100 nM TPA tests,[8]; single-Toxin,never reached the fLuc activity produced in 100 nM TPA tests
